Data published in patent US20210330611A1, “THERAPY FOR NEUROLOGICAL DISEASES/DISORDERS” (priority 2020, published 2021).
Counter-ions that a name gives are not always drawn. Like-named read-outs stand apart in the source and are kept apart here.

Key:
[1] = test system: primary rat microglia; test: Cell toxicity (dead cells, size <150 μm2) in coated fibrin (cFib) assay; conditions: primary microglia HTS, fibrin stimulation;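 further: share of dead cells sized under 150 µm2 at 10 µM in fibrin-stimulated microglia HTS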
[2] = test system: fibrin- and LPS-induced microglia activation; test: cells; format: cell-based, rat; conditions: quadrant by fibrin and LPS inhibition in HTS of 1907 compounds
[3] = test system: fibrin-induced microglia activation; test: Image-based assay of fibrin-induced microglia activation (HTS and dose response); format: cell-based, rat; conditions: primary microglia HTS, fibrin stimulation; for inhibition at 10 µM: Rattus norvegicus, Microglia, read-out: Fibrin % inhibition
[4] = test system: LPS-induced microglia activation; test: Image-based assay of LPS-induced microglia activation (HTS and dose response); format: cell-based, rat; conditions: primary microglia HTS, LPS stimulation; for inhibition at 10 µM: Rattus norvegicus, Microglia, 48 h, read-out: LPS % inhibition
[5] = test system: primary rat microglia; test: Cell toxicity (dead cells, size <150 μm2) in LPS assay; conditions: primary microglia HTS, LPS stimulation
[6] = activation = cell size >800 μm2
[7] = decreased size (<150 μm^2) as marker of toxicity
[8] = increased cell size (>800 μm^2) as marker of activation

## C[C@@H]1CN([C@H]2CC[C@](C#N)(c3ccc(F)cc3)CC2)CC[C@]1(C(=O)O)c1ccccc1 [Levocabastine]
[1]; toxicity = cell size <150 μm2
  Fibrin % cell toxicity: 1%
[2]
  Quadrant (FIG. 5b): Q4
[3]; [6]
  inhibition at 10 µM: 7%
[4]; [6]
  inhibition at 10 µM: 4%
[5]; toxicity = cell size <150 μm2
  LPS % cell toxicity: 0%

## CCC(=O)O[C@H](CC(=O)O)C[N+](C)(C)C [Levocarnitine Propionate Hydrochloride]
[1]; toxicity = cell size <150 μm2
  Fibrin % cell toxicity: 1%
[2]
  Quadrant (FIG. 5b): Q4
[3]; [6]
  inhibition at 10 µM: -16%
[4]; [6]
  inhibition at 10 µM: 12%
[5]; toxicity = cell size <150 μm2
  LPS % cell toxicity: 1%

## C[N+](C)(C)C[C@H](O)CC(=O)[O-] [Levocarnitine]
[1]; toxicity = cell size <150 μm2
  Fibrin % cell toxicity: 1%
[2]
  Quadrant (FIG. 5b): Q4
[3]; [6]
  inhibition at 10 µM: 8%
[4]; [6]
  inhibition at 10 µM: 15%
[5]; toxicity = cell size <150 μm2
  LPS % cell toxicity: 0%

## C[C@H]1COc2c(N3CCN(C)CC3)c(F)cc3c(=O)c(C(=O)O)cn1c23 [Levofloxacin]
[1]; toxicity = cell size <150 μm2
  Fibrin % cell toxicity: 1%
[2]
  Quadrant (FIG. 5b): Q4
[3]; [6]
  inhibition at 10 µM: 12%
[4]; [6]
  inhibition at 10 µM: 31%
[5]; toxicity = cell size <150 μm2
  LPS % cell toxicity: 0%

## C[C@@H]1CC(=O)NN=C1c1ccc(NN=C(C#N)C#N)cc1 [Levosimendan]
[1]; toxicity = cell size <150 μm2
  Fibrin % cell toxicity: 1%
[2]
  Quadrant (FIG. 5b): Q4
[3]; [6]
  inhibition at 10 µM: 46%
[4]; [6]
  inhibition at 10 µM: 42%
[5]; toxicity = cell size <150 μm2
  LPS % cell toxicity: 0%

## CCN1CCC[C@H]1CNC(=O)c1cc(S(N)(=O)=O)ccc1OC [Levosulpiride]
[1]; toxicity = cell size <150 μm2
  Fibrin % cell toxicity: 1%
[2]
  Quadrant (FIG. 5b): Q4
[3]; [6]
  inhibition at 10 µM: -36%
[4]; [6]
  inhibition at 10 µM: 18%
[5]; toxicity = cell size <150 μm2
  LPS % cell toxicity: 0%

## CC#CCn1c(N2CCC[C@@H](N)C2)nc2c1c(=O)n(Cc1nc(C)c3ccccc3n1)c(=O)n2C [Linagliptin]
[1]; toxicity = cell size <150 μm2
  Fibrin % cell toxicity: 1%
[2]
  Quadrant (FIG. 5b): Q4
[3]; [6]
  inhibition at 10 µM: 2%
[4]; [6]
  inhibition at 10 µM: 14%
[5]; toxicity = cell size <150 μm2
  LPS % cell toxicity: 1%

## CCC[C@@H]1C[C@@H](C(=O)N[C@@H]([C@H]2O[C@H](SC)[C@H](O)[C@@H](O)[C@H]2O)[C@@H](C)O)N(C)C1 [Lincomycin Hydrochloride]
[1]; toxicity = cell size <150 μm2
  Fibrin % cell toxicity: 1%
[2]
  Quadrant (FIG. 5b): Q4
[3]; [6]
  Fibrin % inhibition: −4%
[4]; [6]
  LPS % inhibition: 14%
[5]; toxicity = cell size <150 μm2
  LPS % cell toxicity: 0%

## CCC[C@@H]1C[C@@H](C(=O)N[C@@H]([C@H]2O[C@H](SC)[C@H](O)[C@@H](O)[C@H]2O)[C@@H](C)O)N(C)C1 [Lincomycin]
[1]; toxicity = cell size <150 μm2
  Fibrin % cell toxicity: 1%
[2]
  Quadrant (FIG. 5b): Q4
[3]; [6]
  Fibrin % inhibition: −29%
[4]; [6]
  LPS % inhibition: −5%
[5]; toxicity = cell size <150 μm2
  LPS % cell toxicity: 0%

## NC(=O)CCCCC1CCSS1 (stereo not drawn) [Lipoamide]
[1]; toxicity = cell size <150 μm2
  Fibrin % cell toxicity: 0%
[2]
  Quadrant (FIG. 5b): Q4
[3]; [6]
  inhibition at 10 µM: -18%
[4]; [6]
  inhibition at 10 µM: 8%
[5]; toxicity = cell size <150 μm2
  LPS % cell toxicity: 0%

## CN1[C@@H](CC(=O)c2ccccc2)CCC[C@H]1C[C@H](O)c1ccccc1 [Lobeline]
[1]; toxicity = cell size <150 μm2
  Fibrin % cell toxicity: 1%
[2]
  Quadrant (FIG. 5b): Q4
[3]; [6]
  inhibition at 10 µM: -38%
[4]; [6]
  inhibition at 10 µM: -5%
[5]; toxicity = cell size <150 μm2
  LPS % cell toxicity: 0%

## CCOC(=O)Nc1nc2ccccc2[nH]1 [Lobendazole]
[1]; toxicity = cell size <150 μm2
  Fibrin % cell toxicity: 0%
[2]
  Quadrant (FIG. 5b): Q4
[3]; [6]
  inhibition at 10 µM: -4%
[4]; [6]
  inhibition at 10 µM: 20%
[5]; toxicity = cell size <150 μm2
  LPS % cell toxicity: 0%

## COc1ccc(CN2CCN(C(c3ccc(F)cc3)c3ccc(F)cc3)CC2)c(OC)c1OC [Lomerizine, Lomerizine Dihydrochloride]
[1]; toxicity = cell size <150 μm2
  Fibrin % cell toxicity: 1%
[2]
  Quadrant (FIG. 5b): Q4
[3]; [6]
  Fibrin % inhibition: −5%
[4]; [6]
  LPS % inhibition: 8%
[5]; toxicity = cell size <150 μm2
  LPS % cell toxicity: 0%

## O=C(O)c1nn(Cc2ccc(Cl)cc2Cl)c2ccccc12 [Lonidamine]
[1]; toxicity = cell size <150 μm2
  Fibrin % cell toxicity: 1%
[2]
  Quadrant (FIG. 5b): Q4
[3]; [6]
  inhibition at 10 µM: 7%
[4]; [6]
  inhibition at 10 µM: 19%
[5]; toxicity = cell size <150 μm2
  LPS % cell toxicity: 0%

## O=C1Nc2ccc(Cl)cc2C(c2ccccc2Cl)=NC1O (stereo not drawn) [Lorazepam]
[1]; toxicity = cell size <150 μm2
  Fibrin % cell toxicity: 1%
[2]
  Quadrant (FIG. 5b): Q4
[3]; [6]
  inhibition at 10 µM: -13%
[4]; [6]
  inhibition at 10 µM: -1%
[5]; toxicity = cell size <150 μm2
  LPS % cell toxicity: 0%

## CCCCCN(CCCCC)C(=O)C(CCC(=O)O)NC(=O)c1ccc(Cl)c(Cl)c1 (stereo not drawn) [Lorglumide Sodium]
[1]; toxicity = cell size <150 μm2
  Fibrin % cell toxicity: 1%
[2]
  Quadrant (FIG. 5b): Q4
[3]; [6]
  inhibition at 10 µM: -29%
[4]; [6]
  inhibition at 10 µM: 13%
[5]; toxicity = cell size <150 μm2
  LPS % cell toxicity: 1%

## CN1C(C(=O)Nc2ccccn2)=C(O)c2sc(Cl)cc2S1(=O)=O [Lornoxicam]
[1]; [7]
  Fibrin % cell toxicity: 0%
[2]
  Quadrant (FIG. 5b): Q4
[3]; [8]
  inhibition at 10 µM: 22%
[4]; [8]
  inhibition at 10 µM: 10%
[5]; [7]
  LPS % cell toxicity: 1%

## CN1CCN(C2=Nc3ccccc3Oc3ccc(Cl)cc32)CC1 [Loxapine]
[1]; [7]
  Fibrin % cell toxicity: 0%
[2]
  Quadrant (FIG. 5b): Q4
[3]; [8]
  inhibition at 10 µM: -41%
[4]; [8]
  inhibition at 10 µM: 9%
[5]; [7]
  LPS % cell toxicity: 0%

## CC(C(=O)O)c1ccc(CC2CCCC2=O)cc1 (stereo not drawn) [Loxoprofen]
[1]; [7]
  Fibrin % cell toxicity: 1%
[2]
  Quadrant (FIG. 5b): Q4
[3]; [8]
  inhibition at 10 µM: -19%
[4]; [8]
  inhibition at 10 µM: 10%
[5]; [7]
  LPS % cell toxicity: 0%

## O=C(NC(=O)c1c(F)cccc1F)Nc1cc(Cl)c(OC(F)(F)C(F)C(F)(F)F)cc1Cl (stereo not drawn) [Lufenuron]
[1]; [7]
  Fibrin % cell toxicity: 1%
[2]
  Quadrant (FIG. 5b): Q4
[3]; [8]
  inhibition at 10 µM: 15%
[4]; [8]
  inhibition at 10 µM: 13%
[5]; [7]
  LPS % cell toxicity: 0%

## Cc1ccc(Nc2c(F)cccc2Cl)c(CC(=O)O)c1 [Lumiracoxib]
[1]; [7]
  Fibrin % cell toxicity: 1%
[2]
  Quadrant (FIG. 5b): Q4
[3]; [8]
  inhibition at 10 µM: 14%
[4]; [8]
  inhibition at 10 µM: 18%
[5]; [7]
  LPS % cell toxicity: 0%

## NCc1ccc(S(N)(=O)=O)cc1 [Mafenide]
[1]; [7]
  Fibrin % cell toxicity: 1%
[2]
  Quadrant (FIG. 5b): Q4
[3]; [8]
  inhibition at 10 µM: 10%
[4]; [8]
  inhibition at 10 µM: -3%
[5]; [7]
  LPS % cell toxicity: 0%

## CCOC(=O)CC(SP(=S)(OC)OC)C(=O)OCC (stereo not drawn) [Malathion]
[1]; [7]
  Fibrin % cell toxicity: 0%
[2]
  Quadrant (FIG. 5b): Q4
[3]; [8]
  inhibition at 10 µM: -8%
[4]; [8]
  inhibition at 10 µM: 8%
[5]; [7]
  LPS % cell toxicity: 0%

## Cc1ncc(COP(=O)([O-])[O-])c(CN(CCN(CC(=O)[O-])Cc2c(COP(=O)([O-])[O-])cnc(C)c2[O-])CC(=O)[O-])c1[O-].[H+].[H+].[H+].[Mn+2].[Na+].[Na+].[Na+] [Mangafodipir Trisodium]
[1]; [7]
  Fibrin % cell toxicity: 1%
[2]
  Quadrant (FIG. 5b): Q4
[3]; [8]
  Fibrin % inhibition: 1%
[4]; [8]
  LPS % inhibition: 11%
[5]; [7]
  LPS % cell toxicity: 0%

## COC(=O)C1=C(C)NC(C)=C(C(=O)OCCN2CCN(C(c3ccccc3)c3ccccc3)CC2)C1c1cccc([N+](=O)[O-])c1 (stereo not drawn) [Manidipine Hydrochloride]
[1]; [7]
  Fibrin % cell toxicity: 1%
[2]
  Quadrant (FIG. 5b): Q4
[3]; [8]
  inhibition at 10 µM: -43%
[4]; [8]
  inhibition at 10 µM: 12%
[5]; [7]
  LPS % cell toxicity: 1%

## OC[C@@H](O)[C@@H](O)[C@H](O)[C@H](O)CO [Mannitol]
[1]; [7]
  Fibrin % cell toxicity: 1%
[2]
  Quadrant (FIG. 5b): Q4
[3]; [8]
  inhibition at 10 µM: 5%
[4]; [8]
  inhibition at 10 µM: 0%
[5]; [7]
  LPS % cell toxicity: 0%

## CCN(CCCCOC(=O)c1ccc(OC)c(OC)c1)C(C)Cc1ccc(OC)cc1 (stereo not drawn) [Mebeverine]
[1]; [7]
  Fibrin % cell toxicity: 0%
[2]
  Quadrant (FIG. 5b): Q4
[3]; [8]
  inhibition at 10 µM: -11%
[4]; [8]
  inhibition at 10 µM: 7%
[5]; [7]
  LPS % cell toxicity: 0%
